# Data as given in patent US6703213B2, “Substrate analogs for MurG, methods of making same and assays using same” (The Trustees of Princeton University, priority 1998, dated 2004).
# Target: T1, wild type E. coli MurG (Escherichia coli, UniProt P17443)
# T1 construct: made in house; host or cells: E. coli BL21(DE3)pLysS, pET3a vector
# Test: Initial rate assays with purified, soluble enzyme
# Format: biochemical
# Details: rapid equilibrium sequential mechanism assumed; 0.08 μM purified MurG; UDP-GlcNAc as varied substrate
# Experimental: The following solutions are prepared prior to the assays: 1) 177.3 μM [^14C]-UDP-GlcNAc in H2O (0.05 mCi/mL); 2) 1.5 mM UDP-GlcNAc in H2O; 3) biotinylated Lipid I analog (1b) at 0.5 μg/μL; 4) 10×reaction buffer containing 50 mM HEPES (pH 7.9) and 5 mM MgCl2. The enzyme stock is prepared by diluting the purified enzyme with TBSE to a final concentration of 0.04 μg/μL in a 0.5 mL tube and storing at 4° C. for two days prior to running the assays.
# Thirty reactions are prepared by individually mixing 2 μL of 10×reaction buffer with an appropriate amount of biotinylated Lipid I analog (1b), radioactive UDP-GlcNAc, nonradioactive UDP-GlcNAc, and H2O to a final volume of 18 μl. The final concentration for the Lipid I analog (1b) are 7 μM, 10 μM, 15 μM, 30 μM, 100 μM, and for UDP-GlcNAc 11 μM, 15 μM, 20 μM, 40 μM, 100 μM, 200 μM. Reactions are initiated by adding 2 μL of the enzyme stock and are run for 4 minutes at 24° C. Reactions are stopped by adding 10 μl of 1% (w/v) SDS.
# Deionized H2O is added to each tube to a final volume of approximately 250 μL and the suspension is transferred to a […] 96-well filter plate fitted to a vacuum-line fitted MultiScreen Assay System (Millipore). The resin is washed 15 times with 0.2 mL deionized H2O. […] Samples are counted immediately on a Beckman LS5000 scintillation counter.
# T1 sequence (P17443 whole entry): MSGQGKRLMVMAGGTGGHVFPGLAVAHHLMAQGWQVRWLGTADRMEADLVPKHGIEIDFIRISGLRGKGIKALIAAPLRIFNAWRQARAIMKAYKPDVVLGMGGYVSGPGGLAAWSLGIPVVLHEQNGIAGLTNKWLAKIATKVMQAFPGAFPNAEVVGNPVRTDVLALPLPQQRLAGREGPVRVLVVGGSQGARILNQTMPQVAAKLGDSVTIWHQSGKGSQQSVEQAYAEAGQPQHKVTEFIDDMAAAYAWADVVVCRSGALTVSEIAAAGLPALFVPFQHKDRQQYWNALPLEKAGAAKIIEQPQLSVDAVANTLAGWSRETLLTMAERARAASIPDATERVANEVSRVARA
structure (smiles),measurement,value
"CC(=O)N[C@H]1[C@@H](OP(=O)(O)OP(=O)(O)OC[C@H]2O[C@@H](n3ccc(=O)[nH]c3=O)[C@H](O)[C@@H]2O)O[C@H](CO)[C@@H](O)[C@@H]1O [UDP-GLCNAC, UDP-N-acetylglucosamine]",KUDP-GLCNAC,110 µM
